Measured values: patent US9623016B2, “Antibacterial compounds” (Emergent Virology LLC, priority 2013, dated 2017)
Where two headings read alike, the source gives them in different places.

Experiments:
E. coli (K12) [1] = tested on: E. coli (K12)
Protocol: (§1) The MIC assay is a technique used to determine the lowest concentration of a particular antibiotic needed to inhibit visible growth of bacteria. In this method, two fold serial dilutions of the compound were prepared in broth media. An inoculum of overnight bacterial cultures will be prepared in the same broth medium. The serial dilution tubes will be inoculated with 0.025 ml of undiluted over-night culture (1:100), a 1×10-2 dilution (1:10,000), or a 1×10-4 dilution (1:1,000,000) of bacterial suspension. Results were recorded after 24 hour incubation at 35° C. without shaking by measuring OD600. The MIC is determined by the lowest concentration of compound where no growth is visible.

E. coli (WT) [2] = tested on: E. coli (WT)
Protocol: as §1

P. aeruginosa 4961 [3] = tested on: P. aeruginosa 4961
Protocol: as §1

P. aeruginosa 4990 [4] = tested on: P. aeruginosa 4990
Protocol: as §1

S. aureus (Col) [5] = tested on: S. aureus (Col)
Protocol: as §1

Streptococcus pneumoniae = conditions: Based on SBA agar (not confirmatory)
Protocol: as §1

E. coli (K12) [6] = tested on: E. coli (K12); remark: listed apart in the source
Protocol: (§2) MBC is the lowest concentration of compound required to kill an organism. […] In the case of small colony variants, growth might not occur earlier than 48 hours.

E. coli (WT) [7] = tested on: E. coli (WT); remark: listed apart in the source
Protocol: as §2

P. aeruginosa 4961 [8] = tested on: P. aeruginosa 4961; remark: listed apart in the source
Protocol: as §2

P. aeruginosa 4990 [9] = tested on: P. aeruginosa 4990; remark: listed apart in the source
Protocol: as §2

B. subtilis = experiment: Minimum Bactericidal Concentration (MBC); type: cell-based
Protocol: as §2

P. aeruginosa 4858 = experiment: Minimum Bactericidal Concentration (MBC); type: cell-based
Protocol: as §2

S. aureus (8324-5) = experiment: Minimum Bactericidal Concentration (MBC); type: cell-based
Protocol: as §2

S. aureus (Col) [10] = experiment: Minimum Bactericidal Concentration (MBC); type: cell-based
Protocol: as §2

S. aureus (USA300) = experiment: Minimum Bactericidal Concentration (MBC); type: cell-based
Protocol: as §2

S. aureus = experiment: Minimum Bactericidal Concentration (MBC); type: cell-based; conditions: UV-4B
Protocol: as §2

[11] = tested on: S. aureus USA 300 alpha toxin; conditions: 3 h incubation; hemolysis of 2% rabbit RBC, OD416 nm; FIG. 4
Protocol: • 1. Grow USA300 in MHA plate O/N • 2. Swab bacteria culture from plate and re-suspend in 2 ml PBS • 3. Spin and discard sup. • 4. Wash with 2 ml of PBS. • 5. Re-suspend in 2 ml LB. • 6. […] Add inoculum (make two different inoculum size: 1 and 1:10 in LB). […] Incubate at 370 C for 3 h • 11. Read growth OD600 (T3). • 12. Perform alpha hemolytic assay by using 2% rabbit RBC. Read OD416 nm (T3 hemolysis)

COCCCCCCCCCN1C[C@H](O)[C@@H](O)[C@H](O)[C@H]1CO.Cl [UV-4B, hydrochloric acid salt of N-(9-Methoxynonyl)deoxynojirimycin]
>20 mg/mL: MBC (P. aeruginosa 4961 [8]; UV-4B) | MBC (P. aeruginosa 4990 [9]; UV-4B) | MBC (P. aeruginosa 4858; UV-4B) | MBC (S. aureus (USA300); UV-4B)
−: visible growth (E. coli (K12) [1]; UV-4B 5 mg/ml) | visible growth (E. coli (K12) [1]; UV-4B 10 mg/ml) | visible growth (E. coli (K12) [1]; UV-4B 20 mg/ml) | visible growth (E. coli (WT) [2]; UV-4B 5 mg/ml) | visible growth (E. coli (WT) [2]; UV-4B 10 mg/ml) | visible growth (P. aeruginosa 4961 [3]; UV-4B 5 mg/ml) | visible growth (P. aeruginosa 4961 [3]; UV-4B 10 mg/ml) | visible growth (P. aeruginosa 4961 [3]; UV-4B 20 mg/ml) | visible growth (P. aeruginosa 4990 [4]; UV-4B 5 mg/ml) | visible growth (P. aeruginosa 4990 [4]; UV-4B 10 mg/ml) | visible growth (P. aeruginosa 4990 [4]; UV-4B 20 mg/ml) | visible growth (S. aureus (Col) [5]; UV-4B 2.50 mg/ml) | visible growth (S. aureus (Col) [5]; UV-4B 5 mg/ml) | visible growth (S. aureus (Col) [5]; UV-4B 10 mg/ml) | visible growth (Streptococcus pneumoniae; UV-4B 10 mg/ml) | growth after re-inoculation on BHI agar (E. coli (WT) [7]; UV-4B 10 mg/ml) | growth after re-inoculation on BHI agar (S. aureus (8324-5); UV-4B 20 mg/ml) | growth after re-inoculation on BHI agar (S. aureus (Col) [10]; UV-4B 2.50 mg/ml) | growth after re-inoculation on BHI agar (S. aureus (Col) [10]; UV-4B 5.00 mg/ml) | growth after re-inoculation on BHI agar (S. aureus (Col) [10]; UV-4B 10 mg/ml)
+: visible growth (E. coli (K12) [1]; UV-4B 0.04 mg/ml) | visible growth (E. coli (K12) [1]; UV-4B 0.08 mg/ml) | visible growth (E. coli (K12) [1]; UV-4B 0.16 mg/ml) | visible growth (E. coli (K12) [1]; UV-4B 0.31 mg/ml) | visible growth (E. coli (K12) [1]; UV-4B 0.63 mg/ml) | visible growth (E. coli (K12) [1]; UV-4B 2.50 mg/ml) | visible growth (E. coli (WT) [2]; UV-4B 0.02 mg/ml) | visible growth (E. coli (WT) [2]; UV-4B 0.04 mg/ml) | visible growth (E. coli (WT) [2]; UV-4B 0.08 mg/ml) | visible growth (E. coli (WT) [2]; UV-4B 0.16 mg/ml) | visible growth (E. coli (WT) [2]; UV-4B 0.31 mg/ml) | visible growth (E. coli (WT) [2]; UV-4B 0.63 mg/ml) | visible growth (E. coli (WT) [2]; UV-4B 2.50 mg/ml) | visible growth (P. aeruginosa 4961 [3]; UV-4B 0.04 mg/ml) | visible growth (P. aeruginosa 4961 [3]; UV-4B 0.08 mg/ml) | visible growth (P. aeruginosa 4961 [3]; UV-4B 0.16 mg/ml) | visible growth (P. aeruginosa 4961 [3]; UV-4B 0.31 mg/ml) | visible growth (P. aeruginosa 4961 [3]; UV-4B 0.63 mg/ml) | visible growth (P. aeruginosa 4961 [3]; UV-4B 2.50 mg/ml) | visible growth (P. aeruginosa 4990 [4]; UV-4B 0.04 mg/ml) | visible growth (P. aeruginosa 4990 [4]; UV-4B 0.08 mg/ml) | visible growth (P. aeruginosa 4990 [4]; UV-4B 0.16 mg/ml) | visible growth (P. aeruginosa 4990 [4]; UV-4B 0.31 mg/ml) | visible growth (P. aeruginosa 4990 [4]; UV-4B 0.63 mg/ml) | visible growth (P. aeruginosa 4990 [4]; UV-4B 2.50 mg/ml) | visible growth (S. aureus (Col) [5]; UV-4B 0.02 mg/ml) | visible growth (S. aureus (Col) [5]; UV-4B 0.04 mg/ml) | visible growth (S. aureus (Col) [5]; UV-4B 0.08 mg/ml) | visible growth (S. aureus (Col) [5]; UV-4B 0.16 mg/ml) | visible growth (S. aureus (Col) [5]; UV-4B 0.31 mg/ml) | visible growth (S. aureus (Col) [5]; UV-4B 0.63 mg/ml) | visible growth (Streptococcus pneumoniae; UV-4B 0.04 mg/ml) | visible growth (Streptococcus pneumoniae; UV-4B 0.08 mg/ml) | visible growth (Streptococcus pneumoniae; UV-4B 0.16 mg/ml) | visible growth (Streptococcus pneumoniae; UV-4B 0.31 mg/ml) | visible growth (Streptococcus pneumoniae; UV-4B 0.63 mg/ml) | visible growth (Streptococcus pneumoniae; UV-4B 2.50 mg/ml) | visible growth (Streptococcus pneumoniae; UV-4B 5 mg/ml) | growth after re-inoculation on BHI agar (E. coli (K12) [6]; UV-4B 2.50 mg/ml) | growth after re-inoculation on BHI agar (E. coli (K12) [6]; UV-4B 5.00 mg/ml) | growth after re-inoculation on BHI agar (E. coli (K12) [6]; UV-4B 10 mg/ml) | growth after re-inoculation on BHI agar (E. coli (K12) [6]; UV-4B 20 mg/ml) | growth after re-inoculation on BHI agar (E. coli (WT) [7]; UV-4B 2.50 mg/ml) | growth after re-inoculation on BHI agar (E. coli (WT) [7]; UV-4B 5.00 mg/ml) | growth after re-inoculation on BHI agar (P. aeruginosa 4961 [8]; UV-4B 2.50 mg/ml) | growth after re-inoculation on BHI agar (P. aeruginosa 4961 [8]; UV-4B 5.00 mg/ml) | growth after re-inoculation on BHI agar (P. aeruginosa 4961 [8]; UV-4B 10 mg/ml) | growth after re-inoculation on BHI agar (P. aeruginosa 4961 [8]; UV-4B 20 mg/ml) | growth after re-inoculation on BHI agar (P. aeruginosa 4990 [9]; UV-4B 2.50 mg/ml) | growth after re-inoculation on BHI agar (P. aeruginosa 4990 [9]; UV-4B 5.00 mg/ml) | growth after re-inoculation on BHI agar (P. aeruginosa 4990 [9]; UV-4B 10 mg/ml) | growth after re-inoculation on BHI agar (P. aeruginosa 4990 [9]; UV-4B 20 mg/ml) | growth after re-inoculation on BHI agar (B. subtilis; UV-4B 2.50 mg/ml) | growth after re-inoculation on BHI agar (B. subtilis; UV-4B 5.00 mg/ml) | growth after re-inoculation on BHI agar (B. subtilis; UV-4B 10 mg/ml) | growth after re-inoculation on BHI agar (P. aeruginosa 4858; UV-4B 2.50 mg/ml) | growth after re-inoculation on BHI agar (P. aeruginosa 4858; UV-4B 5.00 mg/ml) | growth after re-inoculation on BHI agar (P. aeruginosa 4858; UV-4B 10 mg/ml) | growth after re-inoculation on BHI agar (P. aeruginosa 4858; UV-4B 20 mg/ml) | growth after re-inoculation on BHI agar (S. aureus (8324-5); UV-4B 2.50 mg/ml) | growth after re-inoculation on BHI agar (S. aureus (8324-5); UV-4B 5.00 mg/ml) | growth after re-inoculation on BHI agar (S. aureus (8324-5); UV-4B 10 mg/ml) | growth after re-inoculation on BHI agar (S. aureus (USA300); UV-4B 2.50 mg/ml) | growth after re-inoculation on BHI agar (S. aureus (USA300); UV-4B 5.00 mg/ml) | growth after re-inoculation on BHI agar (S. aureus (USA300); UV-4B 10 mg/ml) | growth after re-inoculation on BHI agar (S. aureus (USA300); UV-4B 20 mg/ml)
2.5 mg/mL: MIC (S. aureus (Col) [5]; Table 3) | MBC (S. aureus (Col) [10]; UV-4B)
− (− OD600 >0.05): growth (OD600) (S. aureus (Col) [5]; Table 4, 0.63 mg/ml) | growth (OD600) (S. aureus (Col) [5]; Table 4, 2.50 mg/ml) | growth (OD600) (S. aureus (Col) [5]; Table 4, 5 mg/ml) | growth (OD600) (S. aureus (Col) [5]; Table 4, 10 mg/ml) | growth (OD600) (S. aureus (Col) [5]; Table 4, 20 mg/ml)
5 mg/mL: MIC (E. coli (K12) [1]; Table 3) | MIC (E. coli (WT) [2]; Table 3) | MIC (P. aeruginosa 4961 [3]; Table 3) | MIC (P. aeruginosa 4990 [4]; Table 3)
10 mg/mL: MIC (Streptococcus pneumoniae; Table 3) | MBC (E. coli (WT) [7]; UV-4B)
higher than 2.5 mg/ml: concentration allowing inhibition of alpha toxin production [11]
0.625 mg/mL: MIC (S. aureus (Col) [5]; Table 4)
+ (+ OD600 <0.05): growth (OD600) (S. aureus (Col) [5]; Table 4, 0.02 mg/ml) | growth (OD600) (S. aureus (Col) [5]; Table 4, 0.04 mg/ml) | growth (OD600) (S. aureus (Col) [5]; Table 4, 0.08 mg/ml) | growth (OD600) (S. aureus (Col) [5]; Table 4, 0.16 mg/ml) | growth (OD600) (S. aureus (Col) [5]; Table 4, 0.31 mg/ml)
20 mg/mL: MBC (E. coli (K12) [6]; UV-4B) | MBC (S. aureus)
>10 mg/mL: MBC (B. subtilis; UV-4B)
